# Columns and labels:
# several MM cell lines = test: Proliferation of MM cell lines with CDK7 inhibitor; type: cell-based; conditions: data not shown
# Protocol: (§1) Proliferation and viability assays: Cell growth curves were determined by monitoring the viability of cells with Trypan blue exclusion on a Vi-Cell-XR (Becton Dickinson, Franklin Lakes, N.J., USA). Proliferation assays were performed in triplicate at least three times (n=3) using (3H)-thymidine incorporation. All data were plotted and analyzed using GraphPad Prism 7 (GraphPad Software, La Jolla, Calif., USA) software, represented as the mean with an error determined as ±s.d.
# Effects of BRD4 inhibitors on CKS1B and E2F2 and their target genes. CKS1B and E2F2 have been enlisted as super-enhancer (SE) associated genes in MM (Loven, J., et al., Cell, 2013, 153(2): p. 320-34). In order to pharmacologically target CKS1B and E2F2, the BET inhibitors JQ1 and Compound A were utilized in MDMS8-like and H929 cell lines. […] BET inhibitors also promoted a decrease in Cereblon substrates, Ikaros, Aiolos and c-Myc levels. Further, an increase in the levels of P27 was observed, which is a negative regulator of CKS1B signaling. Immunofluorescence staining was performed to analyze the localization and expression of CKS1B and E2F2 in response to JQ1 and confirmed the decrease in their nuclear expression in MDMS8-like cells (data not shown). Since BET inhibitors mediate their changes mainly at transcript levels, transcript levels of CKS1B and E2F2 were analyzed in response to BET inhibitors. […]
# AMO1-PR cells = test: Apoptosis by Annexin V and Topro staining; type: cell-based
# Protocol: (§2) Flow cytometry: Annexin-V Alexa Fluor 488-conjugated antibody (Thermo Scientific, Waltham, Mass., USA) and To-Pro-3 (Thermo Scientific, Waltham, Mass., USA) were used according to the manufacturer's protocol and processed using Flow Jo software for at least three independent experiments. For cell cycle analysis, cells were stained with Propidium Iodide (PI) staining kit (Abcam, Cambridge, Mass., USA) and analysis was performed on Flow Jo V10 software. Staining of mitotic marker pHH3-Ser^10 was also performed by pHH3-Ser^10 and PI dual staining.
# (§3) The PLK1 inhibitor BI2536 and Compound 5 were tested for their activity as individual agents and in combination in AMO1 parental and AMO1-PR cell lines. […] Changes in apoptosis were analyzed using the single agent treatments and their combination using Annexin V and Topro staining. […] Changes in Ikaros and pro-survival signaling in these cell lines was analyzed in response to BI2536 and Compound 5 after 24 and 72 hours of treatment (FIG. 5K).
# AMO1 cells = test: Apoptosis by Annexin V and Topro staining; type: cell-based; conditions: AMO-1 cells
# Protocol: as §2, §3
# K12PE cell line = test: Proliferation assay; type: cell-based; conditions: for Synergy analysis (Calcusyn) of combination with JQ1 on proliferation: K12PE cells, in combination with JQ1
# Protocol: as §1
# as §1, with “assay.” for “assays:”, “Cell lines” for “Proliferation assays”, “plated” for “performed”, “in 96-well round-bottom plates with the indicated drug concentrations or knockdown cells. […]” for “at least three times (n=3) using (3H)-thymidine incorporation.”
# [1] = test system: acute myeloid leukemia (AML); conditions: administered alone; cited from earlier work
# AMO1 cell line = test: Proliferation assay; type: cell-based; conditions: AMO1; for Synergy with trametinib on proliferation: in combination with trametinib
# Protocol: as §1
# as §1, with “assay.” for “assays:”, “Cell lines” for “Proliferation assays”, “plated” for “performed”, “in 96-well round-bottom plates with the indicated drug concentrations or knockdown cells. […]” for “at least three times (n=3) using (3H)-thymidine incorporation.”
# [2] = test system: AMO1-PR (pomalidomide resistant) cell line; test: Proliferation assay; type: cell-based; conditions: for Synergy with trametinib on proliferation: in combination with trametinib
# Protocol: as §1
# as §1, with “assay.” for “assays:”, “Cell lines” for “Proliferation assays”, “plated” for “performed”, “in 96-well round-bottom plates with the indicated drug concentrations or knockdown cells. […]” for “at least three times (n=3) using (3H)-thymidine incorporation.”
# K12PE-PR cell line = test: Proliferation assay; type: cell-based; conditions: Pom resistant K12PE-PR; in combination with JQ1
# Protocol: as §1
# as §1, with “assay.” for “assays:”, “Cell lines” for “Proliferation assays”, “plated” for “performed”, “in 96-well round-bottom plates with the indicated drug concentrations or knockdown cells. […]” for “at least three times (n=3) using (3H)-thymidine incorporation.”
# Mc-CAR cell line = test: Proliferation assay; type: cell-based; conditions: McCAR; 1q amp normal; BRD4/BET inhibition; read-out: IC50
# Protocol: as §1
# (§4) Proliferation and viability assay. Cell growth curves were determined by monitoring the viability of cells with Trypan blue exclusion on a Vi-Cell-XR (Becton Dickinson, Franklin Lakes, N.J., USA). Cell lines were plated in triplicate in 96-well round-bottom plates with the indicated drug concentrations or knockdown cells. Proliferation assays were performed in triplicate at least three times (n=3) using either the WST-1 tetrazolium salt (Roche Applied Science) reagent used according to the manufacturer's specifications or by (3H)-thymidine incorporation as previously described (Bjorklund et al., Blood Cancer Journal 5, e354, 2015). All data were plotted and analyzed using GraphPad Prism 7 (GraphPad Software, La Jolla, Calif., USA) software, represented as the mean with an error determined as ±s.d.
# H929 cell line = test: Proliferation assay; type: cell-based; conditions: Homo sapiens, NCI-H929, 1q amp 3-4×, BRD4/BET inhibition, read-out: IC50
# Protocol: as §1, §4
# MM1.S cell line = test: Proliferation assay; type: cell-based; conditions: Homo sapiens, 1q amp 3×, BRD4/BET inhibition
# Protocol: as §1
# DF15/PR cell line = test: Proliferation assay; type: cell-based; conditions: 1q amp 3×, BRD4/BET inhibition
# Protocol: as §1
# KMS11 cell line = test: Proliferation assay; type: cell-based; conditions: Homo sapiens, KMS-11, 1q amp 6-8×, BRD4/BET inhibition
# Protocol: as §1
# U266 cell line = test: Proliferation assay; type: cell-based; conditions: Homo sapiens, U-266, 1q amp 3×, BRD4/BET inhibition, read-out: IC50
# Protocol: as §1
# [3] = test system: CKS1B and E2F2 in MDMS8-like (DF15PR) cell line; test: Immunoblot of CKS1B and E2F2 after BET inhibitors; type: cell-based; conditions: FIG. 10A
# Excerpt: (§5) Effects of BRD4 inhibitors on CKS1B and E2F2 and their target genes. CKS1B and E2F2 have been enlisted as super-enhancer (SE) associated genes in MM (Loven, J., et al., Cell, 2013, 153(2): p. 320-34). In order to pharmacologically target CKS1B and E2F2, the BET inhibitors JQ1 and Compound A were utilized in MDMS8-like and H929 cell lines. […] BET inhibitors also promoted a decrease in Cereblon substrates, Ikaros, Aiolos and c-Myc levels. Further, an increase in the levels of P27 was observed, which is a negative regulator of CKS1B signaling. Immunofluorescence staining was performed to analyze the localization and expression of CKS1B and E2F2 in response to JQ1 and confirmed the decrease in their nuclear expression in MDMS8-like cells (data not shown). Since BET inhibitors mediate their changes mainly at transcript levels, transcript levels of CKS1B and E2F2 were analyzed in response to BET inhibitors. In both MDMS8-like and H929 cell lines, BET inhibitors promoted a decrease in transcript levels of CKS1B and E2F2 (FIG. 10C, FIG. 10D, FIG. 10E, and FIG. 10F). […] To ascertain the SE mediated regulation of CKS1B and E2F2, CDK7 inhibitors targeting SE-associated complexes in MM cell lines were utilized.
# [4] = test system: CKS1B and E2F2 in H929 cell line; test: Immunoblot of CKS1B and E2F2 after BET inhibitors; type: cell-based; conditions: FIG. 10B
# Excerpt: as §5
# [5] = test system: AMO1 NEK2 shRNA (NEK2 knocked-down) cells; test: Proliferation assay in NEK2 knocked-down cells; type: cell-based
# Protocol: as §4
# (§6) To further confirm the synergistic effect, shRNA knockdown was combined with either Compound 5 or Compound 6 treatment. Expression of control and NEK2 shRNA in AMO1 cell lines was induced, followed by exposure of the cells to increasing concentrations of Compound 5 and Compound 6. The results were measured through a proliferation assay.
# AMO1 control shRNA cells = test: Proliferation assay in control shRNA cells; type: cell-based; conditions: Homo sapiens, AMO1, read-out: IC50, proliferation
# Protocol: as §4, §6
compound,measurement,setting,value
CN(C)C/C=C/C(=O)Nc1ccc(C(=O)Nc2cccc(Nc3ncc(Cl)c(-c4c[nH]c5ccccc45)n3)c2)cc1 [THZ1],proliferation,several MM cell lines,potent decrease in proliferation
"CC[C@@H]1C(=O)N(C)c2cnc(Nc3ccc(C(=O)NC4CCN(C)CC4)cc3OC)nc2N1C1CCCC1 [BI2536, (R)-4-((8-cyclopentyl-7-ethyl-5-methyl-6-oxo-5,6,7,8-tetrahydropteridin-2-yl)amino)-3-methoxy-N-(1-methylpiperidin-4-yl)benzamide]",late apoptosis,AMO1-PR cells; vehicle 2.77%,7.55%
same,early apoptosis,AMO1-PR cells; vehicle 3.82%,23.2%
same,late apoptosis,AMO1 cells; vehicle 2.24%,4.25%
same,early apoptosis,AMO1 cells; vehicle 2.69%,10.9%
same,Activity in biallelic P53 cell line compared to P53-wild type cells,"K12PE cell line; K12PE vs AMO1, FIG. 7B",higher activity
"CT-011: anti-PD-1 antibody, a humanized antibody",response in treating acute myeloid leukemia (AML) at relapse,[1],failed to show response
"Nc1cccc2c1CN(C1CCC(=O)NC1=O)C2=O (centres unmarked) [Compound 2, 3-(4-amino-1-oxo-1,3 dihydro-isoindol-2-yl)-piperidine-2,6-dione]",Synergy with trametinib on proliferation,AMO1 cell line,strong synergy
same,Synergy with trametinib on proliferation,[2],strong synergy
same,Synergy of combination with JQ1 on proliferation,K12PE-PR cell line,synergistically decreased proliferation
same,Synergy analysis (Calcusyn) of combination with JQ1 on proliferation,K12PE cell line,synergistic
"Cn1cc(-c2cc(S(C)(=O)=O)ccc2OCC2CC2)c2ccccc2c1=O [Compound A, 4-[2-(cyclopropylmethoxy)-5-(methanesulfonyl)phenyl]-2-methylisoquinolin-1(2H)-one]",IC50,Mc-CAR cell line,0.0934 µM
same,IC50,H929 cell line,0.0541 µM
same,IC50,MM1.S cell line,0.0282 µM
same,IC50,DF15/PR cell line,0.0359 µM
same,IC50,KMS11 cell line,0.0403 µM
same,IC50,U266 cell line,0.0339 µM
same,protein levels of CKS1B and E2F2,[3],dose and time dependent decrease
same,protein levels of CKS1B and E2F2,[4],dose and time dependent decrease
"Cc1sc2c(c1C)C(c1ccc(Cl)cc1)=N[C@@H](CC(=O)OC(C)(C)C)c1nnc(C)n1-2 [JQ1, (S)-tert-butyl 2-(4-(4-chlorophenyl)-2,3,9-trimethyl-6H-thieno[3,2-f][1,2,4]triazolo[4,3-a][1,4]diazepin-6-yl)acetate]",IC50,Mc-CAR cell line,0.0835 µM
same,IC50,H929 cell line,0.0517 µM
same,IC50,MM1.S cell line,0.0152 µM
same,IC50,DF15/PR cell line,0.0378 µM
same,IC50,KMS11 cell line,0.0362 µM
same,IC50,U266 cell line,0.0148 µM
same,protein levels of CKS1B and E2F2,[3],dose and time dependent decrease
same,protein levels of CKS1B and E2F2,[4],dose and time dependent decrease
"N#Cc1ccc(N2CCN(Cc3ccc(COc4cccc5c4CN([C@H]4CCC(=O)NC4=O)C5=O)cc3)CC2)c(F)c1 [Compound 6, (S)-4-(4-(4-(((2-(2,6-dioxopiperidin-3-yl)-1-oxoisoindolin-4-yl)oxy)methyl)benzyl)piperazin-1-yl)-3-fluorobenzonitrile]",IC50,"[5]; Homo sapiens, NEK2 knocked-down AMO1 cells",0.00289 µM
same,Increase of activity by NEK2 knockdown in comparison to control shRNA cell line,[5]; IC50 control cells vs NEK2 knocked-down cells,10 fold
same,Synergy (Calcusyn) with NEK2 inhibitors (JH295 and rac-CCT 250863) on proliferation,AMO1 cell line; NEK2 inhibitor 0.016-10 μM,strong synergy
same,Combination analysis (Calcusyn) with YM155 on proliferation,AMO1 cell line; in combination with YM155,synergistic activity
same,Synergy with trametinib on proliferation,AMO1 cell line,strong synergy
same,Synergy (Calcusyn) with NEK2 inhibitors (JH295 and rac-CCT 250863) on proliferation,[2]; NEK2 inhibitor 0.016-10 μM,strong synergy
same,Combination analysis (Calcusyn) with YM155 on proliferation,[2]; in combination with YM155,synergistic activity
same,Synergy with trametinib on proliferation,[2],strong synergy
same,Synergy of combination with JQ1 on proliferation,K12PE-PR cell line,synergistically decreased proliferation
same,Synergy analysis (Calcusyn) of combination with JQ1 on proliferation,K12PE cell line,synergistic
same,IC50,AMO1 control shRNA cells,0.0296 µM
